Values belong to the molecule of their own block, whether it stands above or below them.
Assays:
Format in all cases: biochemical
[1] = target: T1, SERCA2a (cardiac sarcoplasmic reticulum Ca2+-ATPase) (Sus scrofa, UniProt P11607); experiment: NADH-coupled ATPase assay, ten-point concentration-response (activation)
T1 construct: gene ATP2A2; native SERCA2a in enriched pig cardiac SR microsomes

[2] = target: T1, SERCA2a (cardiac sarcoplasmic reticulum Ca2+-ATPase); experiment: NADH-coupled ATPase assay (activation; bell-shaped curve, aggregation suspected at high concentration)
From the text: NADH-coupled ATPase assay (activation; bell-shaped curve, aggregation suspected at high concentration) on SERCA2a (cardiac sarcoplasmic reticulum Ca2+-ATPase) | CP-154526 also activates SERCA2a in the high nM to low µM range, with an observed maximal increase in Vmax

[3] = target: T2, Na+/K+-ATPase NKA-α1 (Sus scrofa, UniProt P05024); experiment: ATPase activity assay
T2 construct: gene ATP1A1

T1 sequence (P11607 1-997 isoform P11607-2): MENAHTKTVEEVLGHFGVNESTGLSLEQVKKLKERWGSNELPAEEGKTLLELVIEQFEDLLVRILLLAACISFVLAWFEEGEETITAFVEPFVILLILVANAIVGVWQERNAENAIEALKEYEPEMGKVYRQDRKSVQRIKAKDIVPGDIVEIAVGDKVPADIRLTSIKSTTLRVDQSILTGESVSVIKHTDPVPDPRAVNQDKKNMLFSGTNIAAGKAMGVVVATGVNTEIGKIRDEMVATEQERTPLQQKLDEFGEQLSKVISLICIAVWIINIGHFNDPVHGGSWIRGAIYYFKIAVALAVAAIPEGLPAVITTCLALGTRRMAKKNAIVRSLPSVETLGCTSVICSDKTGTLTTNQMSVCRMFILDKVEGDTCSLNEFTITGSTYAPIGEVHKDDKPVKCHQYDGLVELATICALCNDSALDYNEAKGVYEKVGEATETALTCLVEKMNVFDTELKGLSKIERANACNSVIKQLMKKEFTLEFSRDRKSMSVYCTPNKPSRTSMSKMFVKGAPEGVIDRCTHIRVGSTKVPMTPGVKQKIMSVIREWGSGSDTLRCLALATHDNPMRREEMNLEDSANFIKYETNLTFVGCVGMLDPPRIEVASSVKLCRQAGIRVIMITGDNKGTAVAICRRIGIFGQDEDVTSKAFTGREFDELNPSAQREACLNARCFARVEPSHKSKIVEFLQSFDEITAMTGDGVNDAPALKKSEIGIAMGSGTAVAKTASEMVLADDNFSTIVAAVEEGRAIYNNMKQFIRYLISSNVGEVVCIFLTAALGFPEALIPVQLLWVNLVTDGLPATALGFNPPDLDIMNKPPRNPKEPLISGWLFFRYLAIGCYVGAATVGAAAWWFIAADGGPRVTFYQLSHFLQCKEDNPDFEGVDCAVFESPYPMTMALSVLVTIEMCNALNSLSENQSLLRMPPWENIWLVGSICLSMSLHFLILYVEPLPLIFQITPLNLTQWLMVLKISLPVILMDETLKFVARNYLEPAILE

EC50 [1]: 2.3 µM
SMILES: Cc1ccc2cccc(NC(=O)c3ccc(OC(C)C)cc3)c2n1 [CDN1163, N-(2-methylquinolin-8-yl)-4-propan-2-yloxybenzamide]

NADH-coupled ATPase assay (activation); bell-shaped curve, aggregation suspected [2]: 28% maximal increase in Vmax at 2.5
SMILES: CCCCN(CC)c1nc(C)nc2c1c(C)cn2-c1c(C)cc(C)cc1C [CP-154526, N-butyl-N-ethyl-2,5-dimethyl-7-(2,4,6-trimethylphenyl)pyrrolo[2,3-d]pyrimidin-4-amine]

SMILES: C[C@]12CC/C(=N\OCCN)C[C@@H]1C(=O)C[C@@H]1[C@@H]2CC[C@]2(C)C(=O)CC[C@@H]12 [istaroxime, (3E,5S,8R,9S,10R,13S,14S)-3-(2-aminoethoxyimino)-10,13-dimethyl-1,2,4,5,7,8,9,11,12,14,15,16-dodecahydrocyclopenta[a]phenanthrene-6,17-dione]
IC50 [3]: 0.47 µM

Reference: publication PMC10785037, “Mechanisms for cardiac calcium pump activation by its substrate and a synthetic allosteric modulator using fluorescence lifetime imaging” (PNAS Nexus, 2023)
